In the assay the test system is RSV A2. Briefly: RSV antiviral cytopathic effect (CPE) assay. In kind it is cell-based. Particulars: human respiratory syncytial virus, HEp-2, 120 h, HEp2 cells infected with RSV A2 (moi ~0.01), 5 days, MTT readout. The essentials: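 HEp2 cells infected with RSV A2 (moi ~0.01) and incubated with serially diluted compound for 5 days at 37 °C. CPE read by MTT metabolism (absorbance 540/650 nm); uninfected cells gave cytotoxicity. EC50 and CC50 obtained by non-linear regression.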
(Protection from cytopathic effect is a common read-out in antiviral testing.)

Setting [1] is: read-out: Activity Range (RSV A2 EC50).
[2] abbreviates: mean EC50, read-out: RSV A2 EC50.

Drawing on US8604034B2, “Substituted imidazo[1,2-α]pyrrolo[1,2-d]pyrazines for treating respiratory syncytial virus (RSV) infections” (Biota Scientific Management Pty Ltd., priority 2010, dated 2013), this text covers EC50 for 40 compounds.

Where a name gives a salt, the structure may show the parent alone. Read-outs that look alike come from different tables or passages of the source.

For `Cc1cc2n(n1)CC1(c3ccc(Cl)cc3)NCCN1C2=O` (centres unmarked) [Compound 47], under setting [1], the half-maximal effective concentration (EC50) was more than 10000 nM.

On to `Cc1cc2n(n1)CC1(c3ccc(Cl)cc3)N(C(=O)c3ccc(F)nc3)CCN1C2=O` (centres unmarked) [Compound 45], for which, under setting [1], the half-maximal effective concentration (EC50) is more than 10000 nM.

Consider `COc1ccc(C23Cn4c(C)ccc4C(=O)N2CCN3C(=O)c2conc2C)cn1` (centres unmarked) [Compound 152], for which the half-maximal effective concentration (EC50) reads like this: under setting [1], less than 49 nM; under setting [2], 5.8 nM.

For `Cc1nocc1C(=O)N1CCN2C(=O)c3cc(-c4ccccn4)nn3CC12c1ccc(Cl)cc1` (centres unmarked) [Compound 63, 10a-(4-chlorophenyl)-1-[(3-methyl-1,2-oxazol-4-yl)carbonyl]-7-(pyridin-2-yl)-2,3,10,10a-tetrahydro-1H,5H-imidazo[1,2-a]pyrazolo[1,5-d]pyrazin-5-one], the EC50 was less than 49 nM under setting [1] and 21 nM under setting [2].

In the case of `Cc1nocc1C(=O)N1CCN2C(=O)c3ccc(CO)n3CC12c1ccc(Cl)cc1` (centres unmarked) [Compound 28], the EC50 under setting [1] lay within 50 to 99 nM and the EC50 under setting [2] was found to be 88 nM.

For the compound `COCc1ccc(C23Cn4cccc4C(=O)N2CCN3C(=O)c2conc2C)cc1` (centres unmarked) [Compound 76], the EC50 reads like this: under setting [1], 50 to 99 nM; under setting [2], 67 nM.

As for `COc1ccc(C23Cn4cc(-c5ccccn5)cc4C(=O)N2CCN3C(=O)c2conc2C)cn1` (centres unmarked) [Compound 128], the EC50 by setting is: under setting [1], 50 to 99 nM; under setting [2], 64 nM.

For the compound `Cc1nocc1C(=O)N1CCN2C(=O)c3ccc(C)n3CC12c1ccc(F)cc1` (centres unmarked) [Compound 154, 10a-(4-fluorophenyl)-8-methyl-1-[(3-methyl-1,2-oxazol-4-yl)carbonyl]-2,3,10,10a-tetrahydro-1H,5H-imidazo[1,2-d]pyrrolo[1,2-d]pyrazin-5-one], the EC50 under setting [1] was less than 49 nM and the concentration for a half-maximal effect (EC50) under setting [2] amounted to 2.3 nM.

Consider `COc1ccc(C23Cn4c(C#N)ccc4C(=O)N2CCN3C(=O)c2conc2C)cc1` (centres unmarked) [Compound 106, 10a-(4-methoxyphenyl)-1-[(3-methyl-1,2-oxazol-4-yl)carbonyl]-5-oxo-2,3,10,10a-tetrahydro-1H,5H-imidazo[1,2-a]pyrrolo[1,2-d]pyrazine-8-carbonitrile], for which the concentration for a half-maximal effect (EC50) is less than 49 nM under setting [1] and 4.1 nM under setting [2].

As for `Cc1nocc1C(=O)N1CCN2C(=O)c3ccc(CN4CCOCC4)n3CC12c1ccc(Cl)cc1` (centres unmarked) [Compound 25, 10a-(4-chlorophenyl)-1-[(3-methyl-1,2-oxazol-4-yl)carbonyl]-8-(morpholin-4-ylmethyl)-2,3,10,10a-tetrahydro-1H,5H-imidazo[1,2-a]pyrrolo[1,2-d]pyrazin-5-one], the EC50 is 50 to 99 nM under setting [1] and 65 nM under setting [2].

Turning to `COc1ccc(C23Cn4cc(C#N)cc4C(=O)N2CCN3C(=O)c2conc2C)cc1` (centres unmarked) [Compound 89, 10a-(4-methoxyphenyl)-1-[(3-methyl-1,2-oxazol-4-yl)carbonyl]-5-oxo-2,3,10,10a-tetrahydro-1H,5H-imidazo[1,2-a]pyrrolo[1,2-d]pyrazine-7-carbonitrile], the half-maximal effective concentration (EC50) under setting [1] fell in the range of 500 to 10000 nM and the EC50 under setting [2] came out at 1600 nM.

As for `Cc1nocc1C(=O)N1CCN2C(=O)c3cccn3CC12c1cnn(C)c1` (centres unmarked) [Compound 118], the EC50 was 100 to 499 nM under setting [1] and 320 nM under setting [2].

As for `Cc1nocc1C(=O)N1CCN2C(=O)c3cc(CN4CCOCC4)cn3CC12c1ccc(Cl)cc1` (centres unmarked) [Compound 26], the EC50 under setting [1] is more than 10000 nM.

In the case of `O=C1c2cccn2CC2(c3ccc(Cl)cc3)N1CCN2C(=O)C1CC1` (centres unmarked) [Compound 18], the EC50 is 500 to 10000 nM under setting [1] and 4100 nM under setting [2].

Regarding `Cc1ccc(C23Cn4c(cccc4=O)C(=O)N2CCN3C(=O)c2conc2C)cc1` (centres unmarked) [Compound 150], the 50% effective concentration (EC50) by setting is: under setting [1], less than 49 nM; under setting [2], 11 nM.

Take `Cc1nocc1C(=O)N1CCN2C(=O)c3ccc(-c4cccnc4)n3CC12c1ccc(F)cc1` (centres unmarked) [Compound 97]: the EC50 was 100 to 499 nM under setting [1] and 460 nM under setting [2].

In the case of `Cc1nocc1C(=O)N1CCN2C(=O)c3ccc(Cl)n3CC12c1ccc(Cl)cc1` (centres unmarked) [Compound 22, 8-chloro-10a-(4-chlorophenyl)-1-[(3-methyl-1,2-oxazol-4-yl)carbonyl]-2,3,10,10a-tetrahydro-1H,5H-imidazo[1,2-a]pyrrolo[1,2-d]pyrazin-5-one], the EC50 is less than 49 nM under setting [1] and 2.2 nM under setting [2].

Regarding `Cc1oncc1C(=O)N1CCN2C(=O)c3cccc(=O)n3CC12c1ccc(Cl)cc1` (centres unmarked) [Compound 40], the concentration giving a half-maximal response (EC50) under setting [1] is 100 to 499 nM and the EC50 under setting [2] is 210 nM.

For `Cc1nocc1C(=O)N1CCN2C(=O)c3cc(-c4cccnc4)cn3CC12c1ccc(Cl)cc1` (centres unmarked) [Compound 30, 10a-(4-chlorophenyl)-1-[(3-methyl-1,2-oxazol-4-yl)carbonyl]-7-(pyridin-3-yl)-2,3,10,10a-tetrahydro-1H,5H-imidazo[1,2-a]pyrrolo[1,2-d]pyrazin-5-one], the EC50 by setting is: under setting [1], less than 49 nM; under setting [2], 36 nM.

As to `O=C1c2cccn2CC2(c3cccnc3)NCCN12` (centres unmarked) [Compound 102, 10a-(pyridin-3-yl)-2,3,10,10a-tetrahydro-1H,5H-imidazo[1,2-a]pyrrolo[1,2-d]pyrazin-5-one], the EC50 under setting [1] is more than 10000 nM.

Take `Cc1nocc1C(=O)N1CCN2C(=O)c3cncn3CC12c1ccc(Cl)cc1` (centres unmarked) [Compound 13]: the 50% effective concentration (EC50) is, setting by setting: under setting [1], 500 to 10000 nM; under setting [2], 1200 nM.

In the case of `Cc1nocc1C(=O)N1CCN2C(=O)c3cc(-c4cccs4)nn3CC12c1ccc(Cl)cc1` (centres unmarked) [Compound 141], the concentration giving a half-maximal response (EC50) under setting [1] is less than 49 nM and the concentration for a half-maximal effect (EC50) under setting [2] was 39 nM.

Consider `Cc1nocc1C(=O)N1CCN2C(=O)c3cc(-c4ccco4)nn3CC12c1ccc(Cl)cc1` (centres unmarked) [Compound 70], for which the concentration for a half-maximal effect (EC50) reads like this: under setting [1], less than 49 nM; under setting [2], 3.6 nM.

Turning to `Cc1nocc1C(=O)N1CCN2C(=O)c3ccc(-c4ccncc4)n3CC12c1ccc(F)cc1` (centres unmarked) [Compound 99], the concentration for a half-maximal effect (EC50) was 100 to 499 nM under setting [1] and 190 nM under setting [2].

In the case of `Cc1nocc1C(=O)N1CCN2C(=O)c3cccn3CC12c1ccc(OC(F)F)cc1` (centres unmarked) [Compound 1, 10a-[4-(difluoromethoxy)phenyl]-1-[(3-methyl-1,2-oxazol-4-yl)carbonyl]-2,3,10,10a-tetrahydro-1H,5H-imidazo[1,2-a]pyrrolo[1,2-d]pyrazin-5-one], the EC50 reads like this: under setting [1], 50 to 99 nM; under setting [2], 89 nM.

Regarding `O=C(c1conc1C(F)(F)F)N1CCN2C(=O)c3cccn3CC12c1ccc(Cl)cc1` (centres unmarked) [Compound 49], the EC50 by setting is: under setting [1], less than 49 nM; under setting [2], 7.9 nM.

On to `Cc1ccc([C@]23Cn4cccc4C(=O)N2CCN3C(=O)c2conc2C)cn1` [Compound 77B, (10aR)-1-[(3-methyl-1,2-oxazol-4-yl)carbonyl]-10a-(6-methylpyridin-3-yl)-2,3,10,10a-tetrahydro-1H,5H-imidazo[1,2-a]pyrrolo[1,2-d]pyrazin-5-one], for which the EC50 by setting is: under setting [1], less than 49 nM; under setting [2], 19 nM.

Take `Cc1nocc1C(=O)N1CCN2C(=O)c3cccn3CC12c1ccsc1` (centres unmarked) [Compound 73]: the EC50 runs as follows: under setting [1], 100 to 499 nM; under setting [2], 250 nM.

As to `COc1ccc(C23Cn4cc(NC5CCCCC5)cc4C(=O)N2CCN3C(=O)c2conc2C)cc1` (centres unmarked) [Compound 112, 7-(cyclohexylamino)-10a-(4-methoxyphenyl)-1-[(3-methyl-1,2-oxazol-4-yl)carbonyl]-2,3,10,10a-tetrahydro-1H,5H-imidazo[1,2-a]pyrrolo[1,2-d]pyrazin-5-one], the 50% effective concentration (EC50) under setting [1] is more than 10000 nM.

For `COc1ccc(C23Cn4cc(CN)cc4C(=O)N2CCN3C(=O)c2conc2C)cc1` (centres unmarked) [Compound 147, 7-(aminomethyl)-10a-(4-methoxyphenyl)-1-[(3-methyl-1,2-oxazol-4-yl)carbonyl]-2,3,10,10a-tetrahydro-1H,5H-imidazo[1,2-a]pyrrolo[1,2-d]pyrazin-5-one; trifluoroacetate salt], the concentration giving a half-maximal response (EC50) reads like this: under setting [1], 100 to 499 nM; under setting [2], 390 nM.

As for `COc1ccc(C23Cn4c(C#N)ccc4C(=O)N2CCN3C(=O)c2conc2C)cn1` (centres unmarked) [Compound 133], the EC50 is less than 49 nM under setting [1] and 7 nM under setting [2].

Regarding `COc1ccc(C23Cn4cc(-c5cnn(C)c5)cc4C(=O)N2CCN3C(=O)c2conc2C)cc1` (centres unmarked) [Compound 82], the EC50 by setting is: under setting [1], less than 49 nM; under setting [2], 48 nM.

For the compound `COc1ccc(C23Cn4c(Cl)ccc4C(=O)N2CCN3C(=O)c2conc2C)cc1` (centres unmarked) [Compound 23], the 50% effective concentration (EC50) under setting [1] is less than 49 nM and the EC50 under setting [2] turned out to be 8 nM.

Consider `COc1ccc(C23Cn4cccc4C(=O)N2CCN3C(=O)c2conc2C(F)(F)F)cc1` (centres unmarked) [Compound 52], for which the EC50 is less than 49 nM under setting [1] and 24 nM under setting [2].

As for `Cc1nocc1C(=O)N1CCN2C(=O)c3cccn3CC12c1ccccc1` (centres unmarked) [Compound 35, 1-[(3-methyl-1,2-oxazol-4-yl)carbonyl]-10a-phenyl-2,3,10,10a-tetrahydro-1H,5H-imidazo[1,2-a]pyrrolo[1,2-d]pyrazin-5-one], the EC50 is 50 to 99 nM under setting [1] and 54 nM under setting [2].

Turning to `COc1ccc(C23Cn4cc(-c5nnn(C)n5)cc4C(=O)N2CCN3C(=O)c2conc2C)cc1` (centres unmarked) [Compound 146, 10a-(4-methoxyphenyl)-1-[(3-methyl-1,2-oxazol-4-yl)carbonyl]-7-(2-methyl-2H-tetrazol-5-yl)-2,3,10,10a-tetrahydro-1H,5H-imidazo[1,2-a]pyrrolo[1,2-d]pyrazin-5-one], the concentration for a half-maximal effect (EC50) is, setting by setting: under setting [1], less than 49 nM; under setting [2], 46 nM.

As for `COc1ccc(C23Cn4cc(-c5cncnc5)cc4C(=O)N2CCN3C(=O)c2conc2C)cc1` (centres unmarked) [Compound 90], the EC50 is, setting by setting: under setting [1], 500 to 10000 nM; under setting [2], 1300 nM.

As for `Cc1nocc1C(=O)N1CCN2C(=O)c3cc(-c4ccccn4)nn3CC12c1ccc(F)cc1` (centres unmarked) [Compound 129], the EC50 was 100 to 499 nM under setting [1] and 130 nM under setting [2].

Turning to `Cc1ccc(C23Cn4cc(-c5cnn(C)c5)cc4C(=O)N2CCN3C(=O)c2conc2C)cn1` (centres unmarked) [Compound 132], the EC50 is, setting by setting: under setting [1], less than 49 nM; under setting [2], 31 nM.

Take `Cc1cc2n(n1)CC1(c3ccc(Cl)cc3)N(C(=O)NCc3ccccc3)CCN1C2=O` (centres unmarked) [Compound 46]: under setting [1], the EC50 was more than 10000 nM.

As a reminder, the EC50 is the concentration at which the effect is half-maximal.
